# According to ChEMBL document CHEMBL3991601, “The target landscape of clinical kinase drugs” (Science, 2017):
# Calls of active or inactive are those of the source. For most assays here, no stated cut-off is given here; in the data, actives have a measured Kd and inactives only a lower limit.
# Target: Atypical kinase COQ8A, mitochondrial (Homo sapiens, UniProt Q8NI60)
# Sequence (Q8NI60 whole entry): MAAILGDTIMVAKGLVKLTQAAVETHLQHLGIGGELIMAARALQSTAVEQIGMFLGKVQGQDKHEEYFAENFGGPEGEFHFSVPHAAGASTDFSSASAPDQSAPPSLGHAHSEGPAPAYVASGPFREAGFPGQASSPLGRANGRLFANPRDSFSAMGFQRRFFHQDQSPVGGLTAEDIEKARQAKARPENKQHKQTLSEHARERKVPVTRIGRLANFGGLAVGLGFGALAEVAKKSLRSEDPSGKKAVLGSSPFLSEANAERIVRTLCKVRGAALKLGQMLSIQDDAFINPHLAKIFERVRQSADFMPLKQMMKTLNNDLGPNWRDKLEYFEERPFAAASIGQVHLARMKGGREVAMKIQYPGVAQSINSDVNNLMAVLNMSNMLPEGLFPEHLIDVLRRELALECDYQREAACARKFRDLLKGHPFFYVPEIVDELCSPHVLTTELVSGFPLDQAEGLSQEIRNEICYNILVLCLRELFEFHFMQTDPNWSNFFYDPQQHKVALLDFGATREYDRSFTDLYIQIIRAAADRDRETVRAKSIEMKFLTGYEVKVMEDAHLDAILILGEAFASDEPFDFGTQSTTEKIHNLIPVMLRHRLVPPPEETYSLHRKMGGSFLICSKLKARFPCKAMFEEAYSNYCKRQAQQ
row,SMILES,Kd
1,COC(=O)[C@@]1(O)C[C@H]2O[C@]1(C)n1c3ccccc3c3c4c(c5c6ccccc6n2c5c31)C(=O)NC4 [K-252A],> 30 µM (inactive)
2,Cc1c(F)cc(C(=O)NC2CC2)cc1-c1ccc(C(=O)NCC(C)(C)C)cn1 [LOSMAPIMOD],> 30 µM (inactive)
3,Cn1cc(-c2ccc(F)c(C(F)(F)F)c2)nc1C1CCN(c2ncnc3[nH]ncc23)CC1 [LY-2584702],> 30 µM (inactive)

# Target: Deoxycytidine kinase (Homo sapiens, UniProt P27707)
# Sequence (P27707 whole entry): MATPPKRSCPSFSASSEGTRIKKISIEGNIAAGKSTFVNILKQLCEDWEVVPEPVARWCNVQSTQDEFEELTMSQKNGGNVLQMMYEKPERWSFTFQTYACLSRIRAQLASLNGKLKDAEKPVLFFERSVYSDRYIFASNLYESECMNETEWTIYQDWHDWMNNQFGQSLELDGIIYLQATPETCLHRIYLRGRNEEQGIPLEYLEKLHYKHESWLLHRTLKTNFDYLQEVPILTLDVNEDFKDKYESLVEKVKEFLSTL
row,SMILES,Kd
1,COC(=O)[C@@]1(O)C[C@H]2O[C@]1(C)n1c3ccccc3c3c4c(c5c6ccccc6n2c5c31)C(=O)NC4 [K-252A],> 30 µM (inactive)
2,Cc1c(F)cc(C(=O)NC2CC2)cc1-c1ccc(C(=O)NCC(C)(C)C)cn1 [LOSMAPIMOD],> 30 µM (inactive)
3,Cn1cc(-c2ccc(F)c(C(F)(F)F)c2)nc1C1CCN(c2ncnc3[nH]ncc23)CC1 [LY-2584702],> 30 µM (inactive)

# Target: ATP-dependent RNA helicase DDX3X (Homo sapiens, UniProt O00571)
# Sequence (O00571 whole entry): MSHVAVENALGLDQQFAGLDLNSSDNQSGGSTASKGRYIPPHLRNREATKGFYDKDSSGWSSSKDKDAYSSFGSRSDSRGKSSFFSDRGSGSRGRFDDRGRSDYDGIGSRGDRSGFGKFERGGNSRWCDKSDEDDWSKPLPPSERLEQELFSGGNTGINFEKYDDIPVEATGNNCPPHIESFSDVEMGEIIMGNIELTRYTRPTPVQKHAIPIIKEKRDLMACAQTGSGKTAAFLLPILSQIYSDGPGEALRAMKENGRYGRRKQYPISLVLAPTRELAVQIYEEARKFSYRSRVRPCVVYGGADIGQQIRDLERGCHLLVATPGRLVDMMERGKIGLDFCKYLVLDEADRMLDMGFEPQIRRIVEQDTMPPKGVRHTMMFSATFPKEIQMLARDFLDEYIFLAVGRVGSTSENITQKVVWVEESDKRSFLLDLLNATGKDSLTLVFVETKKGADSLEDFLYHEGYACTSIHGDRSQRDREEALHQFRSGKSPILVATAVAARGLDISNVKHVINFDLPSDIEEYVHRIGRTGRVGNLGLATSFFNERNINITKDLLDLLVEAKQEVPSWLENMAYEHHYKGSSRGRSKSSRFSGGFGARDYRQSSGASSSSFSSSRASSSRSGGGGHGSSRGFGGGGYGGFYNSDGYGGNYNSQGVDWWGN
row,SMILES,Kd
1,COC(=O)[C@@]1(O)C[C@H]2O[C@]1(C)n1c3ccccc3c3c4c(c5c6ccccc6n2c5c31)C(=O)NC4 [K-252A],> 30 µM (inactive)
2,Cc1c(F)cc(C(=O)NC2CC2)cc1-c1ccc(C(=O)NCC(C)(C)C)cn1 [LOSMAPIMOD],> 30 µM (inactive)
3,Cn1cc(-c2ccc(F)c(C(F)(F)F)c2)nc1C1CCN(c2ncnc3[nH]ncc23)CC1 [LY-2584702],> 30 µM (inactive)

# Target: Tyrosine-protein kinase Fer (Homo sapiens, UniProt P16591)
# Sequence (P16591 whole entry): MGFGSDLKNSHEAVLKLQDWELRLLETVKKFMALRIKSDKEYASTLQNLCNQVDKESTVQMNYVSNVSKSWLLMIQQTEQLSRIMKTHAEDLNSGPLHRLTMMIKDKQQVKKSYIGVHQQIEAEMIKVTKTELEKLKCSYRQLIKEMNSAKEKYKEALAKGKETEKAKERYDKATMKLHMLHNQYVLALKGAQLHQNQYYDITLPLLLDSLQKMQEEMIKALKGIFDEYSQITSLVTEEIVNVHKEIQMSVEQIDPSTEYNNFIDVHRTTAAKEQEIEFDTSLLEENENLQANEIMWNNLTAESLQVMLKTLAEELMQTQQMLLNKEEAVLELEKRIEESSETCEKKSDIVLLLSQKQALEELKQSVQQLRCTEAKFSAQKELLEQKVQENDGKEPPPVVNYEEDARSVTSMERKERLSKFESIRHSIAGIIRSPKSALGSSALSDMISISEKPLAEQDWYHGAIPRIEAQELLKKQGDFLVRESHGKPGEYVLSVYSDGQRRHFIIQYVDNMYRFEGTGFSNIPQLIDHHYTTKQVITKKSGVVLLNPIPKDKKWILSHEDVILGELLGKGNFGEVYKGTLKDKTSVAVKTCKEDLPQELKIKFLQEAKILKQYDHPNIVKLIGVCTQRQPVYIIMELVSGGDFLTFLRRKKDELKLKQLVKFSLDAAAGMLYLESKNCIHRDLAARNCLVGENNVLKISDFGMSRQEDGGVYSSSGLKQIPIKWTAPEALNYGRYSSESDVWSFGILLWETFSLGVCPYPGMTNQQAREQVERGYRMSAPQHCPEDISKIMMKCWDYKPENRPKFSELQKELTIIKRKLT
row,SMILES,Kd
1,COC(=O)[C@@]1(O)C[C@H]2O[C@]1(C)n1c3ccccc3c3c4c(c5c6ccccc6n2c5c31)C(=O)NC4 [K-252A],0.455 µM (active)
2,Cc1c(F)cc(C(=O)NC2CC2)cc1-c1ccc(C(=O)NCC(C)(C)C)cn1 [LOSMAPIMOD],> 30 µM (inactive)
3,Cn1cc(-c2ccc(F)c(C(F)(F)F)c2)nc1C1CCN(c2ncnc3[nH]ncc23)CC1 [LY-2584702],> 30 µM (inactive)

# Target: Tyrosine-protein kinase Lyn (Homo sapiens, UniProt P07948)
# Sequence (P07948 whole entry): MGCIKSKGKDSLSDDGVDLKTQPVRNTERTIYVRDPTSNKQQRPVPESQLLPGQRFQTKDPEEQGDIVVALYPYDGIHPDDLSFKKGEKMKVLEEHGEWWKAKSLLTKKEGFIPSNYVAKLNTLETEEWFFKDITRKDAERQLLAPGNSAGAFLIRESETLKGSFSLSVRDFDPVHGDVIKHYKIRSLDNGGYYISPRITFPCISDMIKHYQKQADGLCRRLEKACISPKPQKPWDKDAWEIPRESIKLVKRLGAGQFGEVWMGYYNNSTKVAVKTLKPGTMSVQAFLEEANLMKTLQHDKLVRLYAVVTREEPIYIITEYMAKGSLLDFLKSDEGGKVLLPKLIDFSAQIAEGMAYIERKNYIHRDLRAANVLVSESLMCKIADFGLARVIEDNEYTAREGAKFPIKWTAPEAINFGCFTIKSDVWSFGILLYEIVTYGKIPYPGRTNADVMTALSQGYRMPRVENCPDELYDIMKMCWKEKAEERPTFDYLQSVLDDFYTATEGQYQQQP
row,SMILES,Kd
1,COC(=O)[C@@]1(O)C[C@H]2O[C@]1(C)n1c3ccccc3c3c4c(c5c6ccccc6n2c5c31)C(=O)NC4 [K-252A],> 30 µM (inactive)
2,Cc1c(F)cc(C(=O)NC2CC2)cc1-c1ccc(C(=O)NCC(C)(C)C)cn1 [LOSMAPIMOD],> 30 µM (inactive)
3,Cn1cc(-c2ccc(F)c(C(F)(F)F)c2)nc1C1CCN(c2ncnc3[nH]ncc23)CC1 [LY-2584702],> 30 µM (inactive)

# Target: Mitogen-activated protein kinase kinase kinase 1 (Homo sapiens, UniProt Q13233)
row,SMILES,Kd
1,COC(=O)[C@@]1(O)C[C@H]2O[C@]1(C)n1c3ccccc3c3c4c(c5c6ccccc6n2c5c31)C(=O)NC4 [K-252A],> 30 µM (inactive)
2,Cc1c(F)cc(C(=O)NC2CC2)cc1-c1ccc(C(=O)NCC(C)(C)C)cn1 [LOSMAPIMOD],> 30 µM (inactive)
3,Cn1cc(-c2ccc(F)c(C(F)(F)F)c2)nc1C1CCN(c2ncnc3[nH]ncc23)CC1 [LY-2584702],> 30 µM (inactive)

# Target: T1, Mitogen-activated protein kinase kinase kinase 2 (Homo sapiens, UniProt Q9Y2U5)
# T1 sequence (Q9Y2U5 whole entry): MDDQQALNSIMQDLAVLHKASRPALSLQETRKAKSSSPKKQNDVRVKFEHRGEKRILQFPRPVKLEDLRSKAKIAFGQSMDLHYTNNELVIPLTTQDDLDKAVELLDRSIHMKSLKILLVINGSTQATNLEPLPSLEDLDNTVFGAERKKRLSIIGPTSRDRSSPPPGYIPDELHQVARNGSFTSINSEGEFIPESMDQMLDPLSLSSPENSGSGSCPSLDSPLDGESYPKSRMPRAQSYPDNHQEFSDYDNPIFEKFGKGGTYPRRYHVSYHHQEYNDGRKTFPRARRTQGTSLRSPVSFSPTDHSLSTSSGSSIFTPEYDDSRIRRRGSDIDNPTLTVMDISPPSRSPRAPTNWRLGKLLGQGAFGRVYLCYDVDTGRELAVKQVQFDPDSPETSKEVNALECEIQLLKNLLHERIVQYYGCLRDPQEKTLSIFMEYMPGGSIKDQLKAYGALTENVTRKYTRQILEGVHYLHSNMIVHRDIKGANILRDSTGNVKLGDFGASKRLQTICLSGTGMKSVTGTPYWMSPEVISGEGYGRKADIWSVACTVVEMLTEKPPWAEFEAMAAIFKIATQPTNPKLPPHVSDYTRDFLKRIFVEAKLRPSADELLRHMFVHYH
row,SMILES,Kd
1,COC(=O)[C@@]1(O)C[C@H]2O[C@]1(C)n1c3ccccc3c3c4c(c5c6ccccc6n2c5c31)C(=O)NC4 [K-252A],4.12 µM (active)
2,Cc1c(F)cc(C(=O)NC2CC2)cc1-c1ccc(C(=O)NCC(C)(C)C)cn1 [LOSMAPIMOD],> 30 µM (inactive)
3,Cn1cc(-c2ccc(F)c(C(F)(F)F)c2)nc1C1CCN(c2ncnc3[nH]ncc23)CC1 [LY-2584702],> 30 µM (inactive)

# Target: MAP kinase-activated protein kinase 2 (Homo sapiens, UniProt P49137)
row,SMILES,Kd
1,COC(=O)[C@@]1(O)C[C@H]2O[C@]1(C)n1c3ccccc3c3c4c(c5c6ccccc6n2c5c31)C(=O)NC4 [K-252A],> 30 µM (inactive)
2,Cc1c(F)cc(C(=O)NC2CC2)cc1-c1ccc(C(=O)NCC(C)(C)C)cn1 [LOSMAPIMOD],0.027 µM (active)
3,Cn1cc(-c2ccc(F)c(C(F)(F)F)c2)nc1C1CCN(c2ncnc3[nH]ncc23)CC1 [LY-2584702],> 30 µM (inactive)

# Target: T2, ATP-dependent 6-phosphofructokinase, platelet type (Homo sapiens, UniProt Q01813)
# T2 sequence (Q01813 whole entry): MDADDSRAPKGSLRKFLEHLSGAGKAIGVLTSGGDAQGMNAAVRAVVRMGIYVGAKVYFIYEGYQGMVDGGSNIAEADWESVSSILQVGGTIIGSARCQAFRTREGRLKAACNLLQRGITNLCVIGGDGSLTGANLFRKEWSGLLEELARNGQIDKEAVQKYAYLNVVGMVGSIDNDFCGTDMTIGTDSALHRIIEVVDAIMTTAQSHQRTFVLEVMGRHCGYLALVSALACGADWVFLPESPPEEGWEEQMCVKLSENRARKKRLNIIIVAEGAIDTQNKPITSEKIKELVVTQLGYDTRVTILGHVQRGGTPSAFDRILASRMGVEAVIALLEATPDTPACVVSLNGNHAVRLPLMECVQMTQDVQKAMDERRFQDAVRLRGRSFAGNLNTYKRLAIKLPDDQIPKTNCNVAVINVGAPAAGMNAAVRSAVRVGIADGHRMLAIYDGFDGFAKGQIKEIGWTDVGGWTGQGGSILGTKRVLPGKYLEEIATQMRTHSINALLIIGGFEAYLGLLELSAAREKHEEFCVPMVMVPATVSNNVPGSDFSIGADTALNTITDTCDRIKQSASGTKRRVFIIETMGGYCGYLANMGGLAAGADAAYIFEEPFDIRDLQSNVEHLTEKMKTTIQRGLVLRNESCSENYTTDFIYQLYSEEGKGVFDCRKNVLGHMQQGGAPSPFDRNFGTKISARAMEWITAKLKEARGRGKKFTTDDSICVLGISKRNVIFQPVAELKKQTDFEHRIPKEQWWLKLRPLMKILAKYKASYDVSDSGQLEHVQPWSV
row,SMILES,Kd
1,COC(=O)[C@@]1(O)C[C@H]2O[C@]1(C)n1c3ccccc3c3c4c(c5c6ccccc6n2c5c31)C(=O)NC4 [K-252A],> 30 µM (inactive)
2,Cc1c(F)cc(C(=O)NC2CC2)cc1-c1ccc(C(=O)NCC(C)(C)C)cn1 [LOSMAPIMOD],> 30 µM (inactive)
3,Cn1cc(-c2ccc(F)c(C(F)(F)F)c2)nc1C1CCN(c2ncnc3[nH]ncc23)CC1 [LY-2584702],> 30 µM (inactive)

# Target: Ribosomal protein S6 kinase alpha-4 (Homo sapiens, UniProt O75676)
# Sequence (O75676 whole entry): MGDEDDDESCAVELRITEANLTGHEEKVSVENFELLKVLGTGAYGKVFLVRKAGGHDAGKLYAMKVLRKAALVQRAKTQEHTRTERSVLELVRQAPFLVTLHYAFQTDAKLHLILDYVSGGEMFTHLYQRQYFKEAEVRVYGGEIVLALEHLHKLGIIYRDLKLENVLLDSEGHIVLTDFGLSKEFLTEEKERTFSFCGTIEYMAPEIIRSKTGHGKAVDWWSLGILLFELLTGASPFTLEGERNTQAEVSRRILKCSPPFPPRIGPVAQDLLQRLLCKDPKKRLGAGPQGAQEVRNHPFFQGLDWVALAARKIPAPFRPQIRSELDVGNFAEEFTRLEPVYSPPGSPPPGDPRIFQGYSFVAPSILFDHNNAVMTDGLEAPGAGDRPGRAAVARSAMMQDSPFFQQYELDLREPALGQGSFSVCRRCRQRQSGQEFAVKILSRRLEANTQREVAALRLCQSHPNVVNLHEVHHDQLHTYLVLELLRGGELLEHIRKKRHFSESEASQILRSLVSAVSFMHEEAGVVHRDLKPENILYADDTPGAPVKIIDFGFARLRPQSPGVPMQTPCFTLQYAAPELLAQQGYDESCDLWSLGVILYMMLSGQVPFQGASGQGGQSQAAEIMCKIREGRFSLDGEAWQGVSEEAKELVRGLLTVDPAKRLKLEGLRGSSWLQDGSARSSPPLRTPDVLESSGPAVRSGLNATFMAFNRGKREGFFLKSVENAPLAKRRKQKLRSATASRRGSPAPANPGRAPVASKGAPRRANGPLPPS
row,SMILES,Kd
1,COC(=O)[C@@]1(O)C[C@H]2O[C@]1(C)n1c3ccccc3c3c4c(c5c6ccccc6n2c5c31)C(=O)NC4 [K-252A],0.432 µM (active)
2,Cc1c(F)cc(C(=O)NC2CC2)cc1-c1ccc(C(=O)NCC(C)(C)C)cn1 [LOSMAPIMOD],> 30 µM (inactive)
3,Cn1cc(-c2ccc(F)c(C(F)(F)F)c2)nc1C1CCN(c2ncnc3[nH]ncc23)CC1 [LY-2584702],> 30 µM (inactive)

# Target: STE20-like serine/threonine-protein kinase (Homo sapiens, UniProt Q9H2G2)
# Sequence (Q9H2G2 whole entry): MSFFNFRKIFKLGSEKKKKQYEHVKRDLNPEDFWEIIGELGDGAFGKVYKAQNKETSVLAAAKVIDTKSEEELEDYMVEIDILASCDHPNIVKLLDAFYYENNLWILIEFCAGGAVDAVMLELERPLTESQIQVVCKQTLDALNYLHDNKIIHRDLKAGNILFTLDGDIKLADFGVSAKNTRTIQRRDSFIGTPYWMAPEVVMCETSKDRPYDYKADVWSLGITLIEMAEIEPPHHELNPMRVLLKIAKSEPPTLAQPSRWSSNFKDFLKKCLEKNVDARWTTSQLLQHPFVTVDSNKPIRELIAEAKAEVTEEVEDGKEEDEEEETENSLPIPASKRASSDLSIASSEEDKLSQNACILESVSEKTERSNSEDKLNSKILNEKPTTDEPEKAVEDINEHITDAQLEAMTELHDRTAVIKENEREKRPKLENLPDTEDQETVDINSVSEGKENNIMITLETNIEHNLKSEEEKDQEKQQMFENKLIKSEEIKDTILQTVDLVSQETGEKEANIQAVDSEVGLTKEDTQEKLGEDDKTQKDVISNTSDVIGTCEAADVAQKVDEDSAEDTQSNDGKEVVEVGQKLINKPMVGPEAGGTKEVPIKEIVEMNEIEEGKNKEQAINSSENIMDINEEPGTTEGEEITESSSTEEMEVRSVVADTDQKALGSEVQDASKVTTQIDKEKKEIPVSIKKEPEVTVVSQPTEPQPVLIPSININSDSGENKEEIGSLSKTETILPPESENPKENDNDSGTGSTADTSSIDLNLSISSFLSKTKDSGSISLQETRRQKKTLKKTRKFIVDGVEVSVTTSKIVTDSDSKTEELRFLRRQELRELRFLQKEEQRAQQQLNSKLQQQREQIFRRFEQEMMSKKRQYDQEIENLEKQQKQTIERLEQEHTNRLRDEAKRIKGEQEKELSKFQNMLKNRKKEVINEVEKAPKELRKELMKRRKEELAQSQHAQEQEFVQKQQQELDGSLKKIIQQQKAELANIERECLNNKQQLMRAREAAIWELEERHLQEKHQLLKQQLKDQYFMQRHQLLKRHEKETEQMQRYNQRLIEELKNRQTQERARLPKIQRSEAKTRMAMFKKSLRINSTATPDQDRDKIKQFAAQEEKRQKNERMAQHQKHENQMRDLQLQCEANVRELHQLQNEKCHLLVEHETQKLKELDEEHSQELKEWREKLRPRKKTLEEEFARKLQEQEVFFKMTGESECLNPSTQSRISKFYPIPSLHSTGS
row,SMILES,Kd
1,COC(=O)[C@@]1(O)C[C@H]2O[C@]1(C)n1c3ccccc3c3c4c(c5c6ccccc6n2c5c31)C(=O)NC4 [K-252A],3.3 µM (active)
2,Cc1c(F)cc(C(=O)NC2CC2)cc1-c1ccc(C(=O)NCC(C)(C)C)cn1 [LOSMAPIMOD],> 30 µM (inactive)
3,Cn1cc(-c2ccc(F)c(C(F)(F)F)c2)nc1C1CCN(c2ncnc3[nH]ncc23)CC1 [LY-2584702],> 30 µM (inactive)

# Target: T3, Serine/threonine-protein kinase TAO1 (Homo sapiens, UniProt Q7L7X3)
# T3 sequence (Q7L7X3 whole entry): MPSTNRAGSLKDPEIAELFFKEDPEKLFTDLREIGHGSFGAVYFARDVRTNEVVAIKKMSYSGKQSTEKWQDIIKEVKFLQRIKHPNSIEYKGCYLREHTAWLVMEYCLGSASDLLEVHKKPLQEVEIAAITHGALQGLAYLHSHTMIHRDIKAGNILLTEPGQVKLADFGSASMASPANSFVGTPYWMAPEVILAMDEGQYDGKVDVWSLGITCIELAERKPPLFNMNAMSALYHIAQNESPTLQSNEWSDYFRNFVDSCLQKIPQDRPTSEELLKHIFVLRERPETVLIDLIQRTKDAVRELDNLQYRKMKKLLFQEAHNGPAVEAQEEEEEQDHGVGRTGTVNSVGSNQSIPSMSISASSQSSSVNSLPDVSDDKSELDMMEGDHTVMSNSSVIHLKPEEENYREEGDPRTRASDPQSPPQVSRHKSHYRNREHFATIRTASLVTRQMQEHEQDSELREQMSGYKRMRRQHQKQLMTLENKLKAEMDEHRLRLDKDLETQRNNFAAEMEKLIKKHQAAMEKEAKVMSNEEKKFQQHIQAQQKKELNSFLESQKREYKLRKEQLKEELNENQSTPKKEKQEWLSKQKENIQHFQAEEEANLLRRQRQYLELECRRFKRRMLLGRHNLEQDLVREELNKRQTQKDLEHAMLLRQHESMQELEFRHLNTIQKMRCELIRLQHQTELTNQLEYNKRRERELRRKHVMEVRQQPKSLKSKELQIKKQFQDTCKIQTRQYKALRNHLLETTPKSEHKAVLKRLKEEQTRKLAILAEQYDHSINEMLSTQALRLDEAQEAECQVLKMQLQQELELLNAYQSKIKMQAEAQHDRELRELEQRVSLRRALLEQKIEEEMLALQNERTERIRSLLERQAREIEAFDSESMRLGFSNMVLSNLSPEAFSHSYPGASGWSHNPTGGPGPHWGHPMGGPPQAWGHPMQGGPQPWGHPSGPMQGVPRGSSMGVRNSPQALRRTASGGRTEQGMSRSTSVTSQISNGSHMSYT
row,SMILES,Kd
1,COC(=O)[C@@]1(O)C[C@H]2O[C@]1(C)n1c3ccccc3c3c4c(c5c6ccccc6n2c5c31)C(=O)NC4 [K-252A],18.8 µM (active)
2,Cc1c(F)cc(C(=O)NC2CC2)cc1-c1ccc(C(=O)NCC(C)(C)C)cn1 [LOSMAPIMOD],> 30 µM (inactive)
3,Cn1cc(-c2ccc(F)c(C(F)(F)F)c2)nc1C1CCN(c2ncnc3[nH]ncc23)CC1 [LY-2584702],> 30 µM (inactive)

# Target: Non-receptor tyrosine-protein kinase TYK2 (Homo sapiens, UniProt P29597)
row,SMILES,Kd
1,COC(=O)[C@@]1(O)C[C@H]2O[C@]1(C)n1c3ccccc3c3c4c(c5c6ccccc6n2c5c31)C(=O)NC4 [K-252A],> 30 µM (inactive)
2,Cc1c(F)cc(C(=O)NC2CC2)cc1-c1ccc(C(=O)NCC(C)(C)C)cn1 [LOSMAPIMOD],> 30 µM (inactive)
3,Cn1cc(-c2ccc(F)c(C(F)(F)F)c2)nc1C1CCN(c2ncnc3[nH]ncc23)CC1 [LY-2584702],> 30 µM (inactive)
